# Experimental data: US7595055B2, “Pharmaceutical composition comprising an extract or compounds isolated from Elfvingia applanata for the prevention and the treatment of diabetes and diabetic complications” (priority 2003, dated 2009)
# Like-named read-outs stand apart in the source and are kept apart here.
# Target: T1, rat lenses aldose reductase (Rattus norvegicus, UniProt P07943)
# T1 construct: The supernatant fraction of the rat lens homogenate was prepared in accordance with the procedure described in literature; from tissue; host or cells: lens of SD rats
# Assay: Inhibitory effect on rat lens aldose reductase activity in vitro
# Format: biochemical
# Details: for IC50: rat lens aldose reductase, DL-glyceraldehyde substrate, NADPH decrease at 340 nm
# Method: Crude aldose reductase (AR) was prepared as follows: rat lense were removed from SD rats weighing 250-280 g and frozen until use. The supernatant fraction of the rat lens homogenate was prepared in accordance with the procedure described in literature (Hayman, S. & Kinoshita, J. H.; J. Biol. Chem., 240, pp 877-882, 1965). Partially purified enzyme with a specific activity of 6.5 U/mg was routinely used to rest enzyme inhibition.
# (2) Measurement of Aldose Reductase Activity AR activity was assayed spectrophotometrically by measuring the decrease in absorption of NADPH at 340 nm over a 5 min with DL-glyceraldehyde as a substrate (Sato, S and Kador, P. F., Biochem. Pharmacol., 40, pp 1033-1042, 1990). Each 1.0 ml of cuvette containing equal units of enzyme, 0.10M sodium phospate buffer (pH 6.2), 0.3 mM NADPH with or without 10 mM substrate and the enzyme inhibitor. The concentration of inhibitors giving 50% inhibition of enzyme activity (IC50) was calculated from the lease-squares regression line of the logarithmic concentration plotted against the remaining activity.
IC50 (read-out: IC50 (converted)) [µM],SMILES,inhibition (%) (Concentration 0.1 (unit not given)),inhibition (%) (Concentration 1 (unit not given)),inhibition (%) (Concentration 10 (unit not given)),IC50 [µg/mL]
256,"O=C(O)c1cc(O)ccc1O [2,5-dihydroxybenzoic acid, 2,5-dihydroxy benzoic acid]",–,–,–,–
52.3,CCCCCCCC[C@@H](O)C(=O)N[C@@H](CO[C@@H]1OC(CO)[C@@H](O)C(O)C1O)[C@H](O)/C=C/CC/C=C(\C)CCCC (stereo partly shown) [Cerebroside],–,–,–,–
5.21,"O=Cc1ccc(O)c(O)c1 [Protocatechualdehyde, protocatechualdehyde]",–,–,–,–
–,"O=C(O)CC1(CC(=O)O)CCCC1 [TMG, tetramethylene glutaric acid]",29.8,53.7,82.1,0.63
